Experimental data from patent US5116822A, “Therapeutic application of dideoxycytidinene” (priority 1990, dated 1992).

Key:
[1] = test system: HIV-infected ATH8 cells / human lymphoid cell lines; conditions: compared with corresponding saturated derivatives; cited from earlier work
HIV [2] = conditions: cited from earlier work
HIV [3] = assay: microbe, parasite or virus in culture; assay type: cell-based
HIV [4] = assay: Protection against HIV replication in MT-4 cells; assay type: cell-based; conditions: for inhibition at 0.1 µM: Human immunodeficiency virus 1, MT4, 0.1 μM
HIV [5] = assay: microbe, parasite or virus in culture; assay type: cell-based; conditions: Human immunodeficiency virus 1, MT4, read-out: % Inhibition of viral antigen expression
HIV [6] = assay: microbe, parasite or virus in culture; assay type: cell-based; conditions: for EC50: Human immunodeficiency virus 1, ATH-8, read-out: EID50 for inhibition of HIV cytopathogenicity
[7] = test system: herpes simplex virus type 1; assay: Antiviral activity against other viruses; assay type: cell-based; conditions: Human alphaherpesvirus 1, HeLa, Vero or PRK cell cultures, read-out: 50% effective inhibitory dose (EID50)
[8] = test system: herpes simplex virus type 2; assay: Antiviral activity against other viruses; assay type: cell-based; conditions: Human alphaherpesvirus 2, HeLa, Vero or PRK cell cultures, read-out: 50% effective inhibitory dose (EID50)
vaccinia virus = assay: microbe, parasite or virus in culture; assay type: cell-based; conditions: Orthopoxvirus vaccinia, read-out: 50% effective inhibitory dose (EID50)
[9] = test system: vesicular stomatitis virus; assay: microbe, parasite or virus in culture; assay type: cell-based; conditions: read-out: 50% effective inhibitory dose (EID50)
Sindbis virus = assay: Antiviral activity against other viruses; assay type: cell-based; conditions: HeLa, Vero or PRK cell cultures, read-out: 50% effective inhibitory dose (EID50)
Coxsackie B4 virus = assay: Antiviral activity against other viruses; assay type: cell-based; conditions: Enterovirus B, HeLa, Vero or PRK cell cultures, read-out: 50% effective inhibitory dose (EID50)
polio virus type 1 = assay: organism not typed; assay type: cell-based; conditions: read-out: 50% effective inhibitory dose (EID50)
reovirus type 1 = assay: Antiviral activity against other viruses; assay type: cell-based; conditions: Mammalian orthoreovirus 1, HeLa, Vero or PRK cell cultures, read-out: 50% effective inhibitory dose (EID50)
[10] = test system: parainfluenza virus type 3; assay: Antiviral activity against other viruses; assay type: cell-based; conditions: Human respirovirus 3, HeLa, Vero or PRK cell cultures, read-out: 50% effective inhibitory dose (EID50)
[11] = test system: DNA viruses and RNA viruses; assay: Antiviral activity against other viruses, overall statement; assay type: cell-based; conditions: in words
FM3A cells = assay: Cytostatic effect (inhibition of cell proliferation); assay type: cell-based, murine; conditions: Mus musculus, read-out: IC50 (50%-inhibitory concentration, cell proliferation)
Experimental: (§1) The compounds ddeCyd and ddCyd were evaluated for their cytostatic effect against a series of murin and human cell lines. This was based upon measuring the inhibition of cell proliferation according to the procedures described by De Clercq et al. in Mol.Pharmacol. 19, 321-330 (1981).
(§2) The following cell lines were used: murine leukemia L1210 cells, designated L1210/0; murine mammary carcinoma FM3A cells; human B-lymphoblast Raji cells; human T-lymphoblast Molt/4F cells; human T4 -lymphocyte ATH8 cells and human T4 -lymphocyte MT-4 cells.

L1210/0 cells = assay: as above; assay type: cell-based, murine; conditions: Mus musculus, read-out: IC50 (50%-inhibitory concentration, cell proliferation)
Experimental: as §1, §2

ATH8 cells = assay: as above; assay type: cell-based; conditions: Homo sapiens, ATH-8, read-out: IC50 (50%-inhibitory concentration, cell proliferation)
Experimental: as §1, §2

MT-4 cells = assay: as above; assay type: cell-based; conditions: Homo sapiens, MT4, read-out: IC50 (50%-inhibitory concentration, cell proliferation)
Experimental: as §1, §2

Molt/4F cells = assay: as above; assay type: cell-based; conditions: Homo sapiens, read-out: IC50 (50%-inhibitory concentration, cell proliferation)
Experimental: as §1, §2

Raji cells = assay: as above; assay type: cell-based; conditions: Homo sapiens, read-out: IC50 (50%-inhibitory concentration, cell proliferation)
Experimental: as §1, §2

Nc1ncnc2c1ncn2[C@H]1C=C[C@@H](CO)O1 [2',3'-unsaturated 2',3'-dideoxyadenosine]
protection of HIV-infected ATH8 cells and/or cytostatic activity against human lymphoid cell lines [1]: significantly less protective against HIV-infected ATH8 cells and/or considerably more cytostatic against human lymphoid cell lines

Cc1cn([C@H]2C=C[C@@H](CO)O2)c(=O)[nH]c1=O [2',3'-unsaturated 2',3'-dideoxythymidine]
protection of HIV-infected ATH8 cells and/or cytostatic activity against human lymphoid cell lines [1]: significantly less protective against HIV-infected ATH8 cells and/or considerably more cytostatic against human lymphoid cell lines

Cc1cn([C@H]2C[C@H](N=[N+]=[N-])[C@@H](CO)O2)c(=O)[nH]c1=O [azidothymidine, 3'-azido-2',2'-dideoxythymidine]
inhibition of HIV replication (HIV [2]; lymphocyte cultures): potent inhibitor of HIV replication

Nc1ccn([C@H]2CC[C@@H](CO)O2)c(=O)n1 [ddCyd, 2',3'-dideoxycytidine, reference compound]
antiviral potency upon prolonged exposure (HIV [3]): without decrease upon prolonged exposure | protection of ATH8 cells (HIV [3]; 0.5 μM, ATH8 cells, no decrease upon prolonged exposure): completely protected | inhibition at 0.1 µM (HIV [3]; Human immunodeficiency virus 1, ATH-8, 0.1 μM, ATH8 cells, no decrease upon prolonged exposure, read-out: protection against HIV replication in ATH8 cells): 75% | protection of MT-4 cells (HIV [4]; 0.5 μM, in words): completely protected | inhibition at 0.1 µM (HIV [4]): 75% | inhibition at 0.1 µM (HIV [5]): 70% | inhibition at 0.5 µM (HIV [5]): 96% | inhibition at 2 µM (HIV [5]): 97% | inhibition at 5 µM (HIV [5]): 97% | inhibition at 20 µM (HIV [5]): 96% | EC50 (HIV [6]): 0.1 to 0.3 µM | EC50 [7]: > 100 µM | EC50 [8]: > 100 µM | EC50 (vaccinia virus): > 100 µM | EC50 [9]: > 100 µM | EC50 (Sindbis virus): > 100 µM | EC50 (Coxsackie B4 virus): > 100 µM | EC50 (polio virus type 1): > 100 µM | EC50 (reovirus type 1): > 100 µM | EC50 [10]: > 100 µM | antiviral effect against other (non-oncogenic RNA and DNA) viruses [11]: neither ddeCyd nor ddCyd demonstrated any significant antiviral effect | IC50 (FM3A cells): > 2370 µM | IC50 (L1210/0 cells): 320 µM | IC50 (ATH8 cells): 35 µM | IC50 (MT-4 cells): 35 µM | IC50 (Molt/4F cells): 17 µM | IC50 (Raji cells): 12 µM | concentration effecting complete antiviral protection (HIV [2]; in vitro): 0.5 to 1.0 µM

Nc1ccn([C@H]2C=C[C@@H](CO)O2)c(=O)n1 [ddeCyd, 2',3'-didehydro-2'-3'-dideoxycytidine]
antiviral potency upon prolonged exposure (HIV [3]): decrease in antiviral potency | protection of cells against destruction by the virus (HIV [3]): almost complete protection | protective effect at a longer time interval (HIV [3]; 10 days (vs 7 days), ATH8 cells): somewhat lower | inhibition at 0.1 µM (HIV [3]; Human immunodeficiency virus 1, ATH-8, 168 h, read-out: protection of cells against destruction by the virus): ~40% | EC (optimum protection) (HIV [3]; Human immunodeficiency virus 1, ATH-8, 240 h, 10 days, ATH8 cells, read-out: concentration for optimum protection): ~2 µM | inhibition at 0.1 µM (HIV [4]): 28% | inhibition at 0.5 µM (HIV [4]; Human immunodeficiency virus 1, MT4, 0.5 μM): 91% | inhibition at 0.02 µM (HIV [5]; 0.02 μM): 8% | inhibition at 0.1 µM (HIV [5]): 20% | inhibition at 0.5 µM (HIV [5]): 85% | inhibition at 2 µM (HIV [5]): 98% | inhibition at 5 µM (HIV [5]): 98% | inhibition at 20 µM (HIV [5]): 96% | effectiveness in inhibiting cytopathogenicity and antigen expression of HIV (HIV [6]; ATH 8 and MT-4 cells, compared with 2',3'-dideoxycytidine): almost as effective as 2',3'-dideoxycytidine | EC50 (HIV [6]): 0.1 to 0.3 µM | fold by which HIV-inhibiting concentrations are below any toxicity for the host cells (HIV [6]; T-cells): at least 100 fold | inhibition of human immunodeficiency virus in cell cultures (HIV [6]; in words): potent and selective inhibitor of human immunodeficiency virus in cell cultures | EC50 [7]: > 100 µM | EC50 [8]: > 100 µM | EC50 (vaccinia virus): > 100 µM | EC50 [9]: > 100 µM | EC50 (Sindbis virus): > 100 µM | EC50 (Coxsackie B4 virus): > 100 µM | EC50 (polio virus type 1): > 100 µM | EC50 (reovirus type 1): > 100 µM | EC50 [10]: > 100 µM | antiviral effect against other (non-oncogenic RNA and DNA) viruses [11]: neither ddeCyd nor ddCyd demonstrated any significant antiviral effect | antiviral effect against other (non-oncogenic RNA and DNA) viruses ([11]; listed as 2',3'-dideoxycytidinene): not show any inhibitory effect | IC50 (FM3A cells): 1160 µM | IC50 (L1210/0 cells): 196 µM | IC50 (ATH8 cells): 30 µM | IC50 (MT-4 cells): 15 µM | IC50 (Molt/4F cells): 20 µM | IC50 (Raji cells): 13 µM
